For eight compounds, T/C results are on record in PubChem BioAssay AID222 (DTP/NCI, 2004).

Values joined by “and” are separate entries in the source; they are usually repeats but may differ in a detail not shown here. Identical values can stand only once. Inconclusive results and toxic doses are left out.

The subject of the experiment is C57BL/6 mice, intracerebral ependymoblastoma, median survival T/C. As to the kind of experiment: NCI In Vivo Anticancer Drug Screen. Data for tumor model Ependymoblastoma (intracerebral) in C57BL/6 mice. To be noted: endpoint: median survival time, higher = longer survival. As for the experimental part: The antitumor activity of compounds was measured in mice bearing transplantable tumors. Survival or tumor size were measured and the results are expressed as the measurement made in the treated group (T) divided by the measurement made in the vehicle treated control group (C). The tumor model used in this assay is Ependymoblastoma (intracerebral) in C57BL/6 mice

The mark [1] stands for this setting: dose: 16.0 mg/kg/injection, schedule: Q01DX001 (ip), vehicle: other.
Setting [2] is: dose: 20.0 mg/kg/injection, schedule: Q01DX001 (ip), vehicle: other.

With `CS(C)=O`, the T/C was 103 % of control (dose: 1.5 grams/kg/injection, schedule: Q01DX005 (ip), vehicle: saline) and 103 % of control (dose: 6.0 grams/kg/injection, schedule: Q01DX005 (ip), vehicle: saline).
For the compound `O=P1(NCCCl)OCCC(OO)N1CCCl` (stereo not given), the T/C runs as follows: (dose: 40.0 mg/kg/injection, schedule: Q01DX001 (ip), vehicle: Klucel (hydroxypropylcellulose) (HPC)) 121 % of control; (dose: 80.0 mg/kg/injection, schedule: Q01DX001 (ip), vehicle: Klucel (hydroxypropylcellulose) (HPC)) 121 % of control; (dose: 160.0 mg/kg/injection, schedule: Q01DX001 (ip), vehicle: Klucel (hydroxypropylcellulose) (HPC)) 151 % of control.
Turning to `Clc1ccc(C(c2ccc(Cl)cc2)C(Cl)(Cl)Cl)cc1`, the T/C (dose: 8.0 mg/kg/injection, schedule: Q01DX005 (ip), vehicle: Klucel (hydroxypropylcellulose) (HPC)) was 92 % of control; the T/C (dose: 16.0 mg/kg/injection, schedule: Q01DX005 (ip), vehicle: Klucel (hydroxypropylcellulose) (HPC)) was 101 % of control; the T/C (dose: 32.0 mg/kg/injection, schedule: Q01DX005 (ip), vehicle: Klucel (hydroxypropylcellulose) (HPC)) is 96 % of control.
With `COc1ccc(C[C@H](N)C(=O)NC2C(CO)OC(n3cnc4c(N(C)C)ncnc43)C2O)cc1` (stereo not given in full), the T/C was 104 % of control (dose: 20.0 mg/kg/injection, schedule: Q01DX005 (ip), vehicle: saline) and 101 % of control (dose: 40.0 mg/kg/injection, schedule: Q01DX005 (ip), vehicle: saline).
For the compound `c1cc2n(n1)CCN2`, the T/C is 108 % of control (dose: 32.0 mg/kg/injection, schedule: Q01DX005 (ip), vehicle: saline); 100 % of control (dose: 64.0 mg/kg/injection, schedule: Q01DX005 (ip), vehicle: saline); 102 % of control (dose: 128.0 mg/kg/injection, schedule: Q01DX005 (ip), vehicle: saline).
For `CN(C)C(=O)N(CCCl)N=O`, the T/C reads like this: under setting [1], 154 % of control; under setting [2], 279 % of control.
Take `O=S(=O)(O)O`: the T/C is 90 % of control (dose: 16.0 mg/kg/injection, schedule: Q01DX005 (ip), vehicle: saline with Tween-80); 94 % of control (dose: 32.0 mg/kg/injection, schedule: Q01DX005 (ip), vehicle: saline with Tween-80); 112 % of control (dose: 64.0 mg/kg/injection, schedule: Q01DX005 (ip), vehicle: saline with Tween-80).
Turning to `O=NN(CCCl)C(=O)NCCCl`, the T/C runs as follows: (dose: 0.12 mg/kg/injection, schedule: Q03HX032 (ip), vehicle: saline) 113 % of control and 291 % of control; (dose: 0.25 mg/kg/injection, schedule: Q03HX032 (ip), vehicle: saline) 291 % of control; (dose: 0.5 mg/kg/injection, schedule: Q03HX008 (ip), vehicle: saline) 110 % of control; (dose: 0.5 mg/kg/injection, schedule: Q03HX032 (ip), vehicle: saline) 169 % of control; (dose: 1.0 mg/kg/injection, schedule: Q01DX005 (ip), vehicle: saline + alcohol) 109 % of control; (dose: 2.0 mg/kg/injection, schedule: Q01DX001 (ip), vehicle: Klucel (hydroxypropylcellulose) (HPC)) 95 % of control and 100 % of control and 111 % of control. Besides, the T/C runs as follows: (dose: 2.0 mg/kg/injection, schedule: Q01DX005 (ip), vehicle: saline with Tween-80) 113 % of control; (dose: 2.0 mg/kg/injection, schedule: Q03HX008 (ip), vehicle: saline) 103 % of control and 251 % of control; (dose: 2.0 mg/kg/injection, schedule: Q03HX032 (ip), vehicle: saline) 151 % of control and 179 % of control; (dose: 4.0 mg/kg/injection, schedule: Q01DX001 (ip), vehicle: Klucel (hydroxypropylcellulose) (HPC)) 101 % of control and 106 % of control and 120 % of control; (dose: 4.0 mg/kg/injection, schedule: Q01DX001 (oral), vehicle: saline with Tween-80) 97 % of control and 108 % of control; (dose: 4.0 mg/kg/injection, schedule: Q01DX005 (ip), vehicle: alcohol) 106 % of control. The T/C (dose: 4.0 mg/kg/injection, schedule: Q03HX008 (ip), vehicle: saline) is 178 % of control and 327 % of control; the T/C (dose: 4.0 mg/kg/injection, schedule: Q## X006 (ip), vehicle: saline with Tween-80) was 159 % of control; the T/C (dose: 8.0 mg/kg/injection, schedule: Q01DX001 (ip), vehicle: Klucel (hydroxypropylcellulose) (HPC)) is 115 % of control; the T/C (dose: 8.0 mg/kg/injection, schedule: Q01DX001 (oral), vehicle: saline with Tween-80) is 95 % of control and 102 % of control and 122 % of control; the T/C (dose: 8.0 mg/kg/injection, schedule: Q01DX005 (ip), vehicle: saline + alcohol) is 361 % of control; the T/C (dose: 8.0 mg/kg/injection, schedule: Q03HX008 (ip), vehicle: saline) is 96 % of control and 98 % of control. Also, the T/C (dose: 8.0 mg/kg/injection, schedule: Q## X006 (ip), vehicle: saline with Tween-80) was 219 % of control; the T/C (dose: 10.0 mg/kg/injection, schedule: Q01DX001 (ip), vehicle: other) was 124 % of control; the T/C (dose: 15.0 mg/kg/injection, schedule: Q01DX001 (ip), vehicle: saline with Tween-80) is 176 % of control; the T/C (dose: 16.0 mg/kg/injection, schedule: Q01DX001 (ip), vehicle: Klucel (hydroxypropylcellulose) (HPC)) was 150 % of control and 228 % of control; the T/C under setting [1] was 124 % of control; the T/C (dose: 16.0 mg/kg/injection, schedule: Q01DX001 (oral), vehicle: saline with Tween-80) is 158 % of control. The T/C by setting is: (dose: 16.0 mg/kg/injection, schedule: Q01DX005 (ip), vehicle: saline + alcohol) 96 % of control; (dose: 16.0 mg/kg/injection, schedule: Q08DX002 (ip), vehicle: saline) 207 % of control and 291 % of control; under setting [2], 164 % of control; (dose: 20.0 mg/kg/injection, schedule: Q01DX001 (oral), vehicle: saline with Tween-80) 195 % of control; (dose: 30.0 mg/kg/injection, schedule: Q01DX001 (ip), vehicle: saline with Tween-80) 212 % of control; (dose: 32.0 mg/kg/injection, schedule: Q01DX001 (ip), vehicle: Klucel (hydroxypropylcellulose) (HPC)) 101 % of control and 217 % of control and 231 % of control. Also, the T/C is, setting by setting: (dose: 32.0 mg/kg/injection, schedule: Q01DX001 (ip), vehicle: other) 219 % of control; (dose: 32.0 mg/kg/injection, schedule: Q01DX001 (oral), vehicle: saline with Tween-80) 108 % of control; (dose: 32.0 mg/kg/injection, schedule: Q04DX004 (ip), vehicle: saline) 111 % of control; (dose: 40.0 mg/kg/injection, schedule: Q01DX001 (ip), vehicle: other) 196 % of control; (dose: 64.0 mg/kg/injection, schedule: Q01DX001 (ip), vehicle: saline with Tween-80) 94 % of control; (dose: 64.0 mg/kg/injection, schedule: Q01DX001 (oral), vehicle: saline with Tween-80) 94 % of control. Moreover, the T/C is, setting by setting: (dose: 64.0 mg/kg/injection, schedule: Q04DX004 (ip), vehicle: saline) 100 % of control; (dose: 64.0 mg/kg/injection, schedule: Q08DX002 (ip), vehicle: saline) 97 % of control; (dose: 128.0 mg/kg/injection, schedule: Q01DX001 (ip), vehicle: saline with Tween-80) 97 % of control; (dose: 128.0 mg/kg/injection, schedule: Q01DX001 (oral), vehicle: saline with Tween-80) 92 % of control; (dose: 256.0 mg/kg/injection, schedule: Q01DX001 (ip), vehicle: saline with Tween-80) 88 % of control; (dose: 256.0 mg/kg/injection, schedule: Q01DX001 (oral), vehicle: saline with Tween-80) 88 % of control.
